# Measured values from patent US20220412957A1, “METHODS OF TREATING CANCER PATIENTS WITH RAS NODE OR RTK TARGETED THERAPEUTIC AGENTS” (Celcuity Inc., priority 2019, published 2022).
# Tests used:
# Format in all cases: cell-based, human
# [1] = system: LPA1-initiated signaling in HER2-negative/PI3K//ERK/MEK/RAF/mTOR Wild-Type breast tumor cell samples; assay: impedance biosensor cell adhesion test, LPA1 agonist with RAS node inhibitors (Example 4); design: unit not given here
# From the text: Tissue and cell samples: 28 HER2-negative/PI3K//ERK/MEK/RAF/mTOR Wild-Type breast tumor cell samples were studied. […] From these responses, the net amount of LPA1-initiated signaling involving PI3K-α, Class 1 PI3K-isoforms (pan-PI3K), Class 1 PI3K-isoforms and mTOR, Bcl-xL and Bcl-2, MEK, ERK, and RAF, individually and in combination, was quantified.
# In this example, 14 of the 28 patient cell samples tested recorded output values with at least one of the targeted therapeutic(s) above 250. […] Five patients would be selected to receive treatment with gedatolisib, four would be selected to receive treatment with copanlisib, one patient would be selected to receive treatment with PLX7904, six patients would be selected to receive treatment with gedatolisib and PLX7904, seven patients would be selected to receive treatment with gedatolisib and ravoxertinib, nine patients would be selected to receive treatment with gedatolisib and trametinib, and 14 patients would be selected to receive treatment with gedatolisib and navitoclax.
# [2] = system: LPA1-initiated signaling in HER2-negative/PI3K wild-type breast tumor cell samples; assay: impedance biosensor cell adhesion test, LPA1 agonist with HER2 inhibitor (Example 2); design: scale not given here
# From the text: (§1) Tissue and cell samples: Eighteen HER2-negative/PI3K wild-type breast tumor cell samples were studied.
# (§2) In this example, four of the eighteen patient cell samples tested recorded output values with the targeted therapeutic, neratinib, above 500. These four patients would thus be selected to receive treatment with neratinib, even though they are HER2-negative.
# [3] = system: S1P-initiated signaling in HER2-negative/PI3K wild-type breast tumor cell samples; assay: impedance biosensor cell adhesion test, S1P agonist with HER2 inhibitor (Example 2); design: scale not given here
# From the text: as §1, §2
# [4] = sample C1838.01.155, cut-off 250
# [5] = sample C1986.01.10, cut-off 250
# [6] = sample C2090.01.14, cut-off 250
# [7] = sample C2169.01.10, cut-off 250
# [8] = sample C3091.01.13, cut-off 250
# [9] = sample C3132.01.13, cut-off 250
# [10] = sample C3311.01.10, cut-off 250
# [11] = sample CL021.01.869, cut-off 250
compound,measurement,setting,value
"COc1c(OCCCN2CCOCC2)ccc2c1N=C(NC(=O)c1cnc(N)nc1)N1CCN=C21 [Copanlisib, copanlisib]",output value,"[1]; sample C1816.01.6, cut-off 250",374
same,output value,[1]; [4],10
same,output value,"[1]; sample C1918.01.5, cut-off 250",113
same,output value,[1]; [5],170
same,output value,[1]; [6],103
same,output value,"[1]; sample C2167.01.4, cut-off 250",67
same,output value,[1]; [7],199
same,output value,"[1]; sample C2483.01.6, cut-off 250",113
same,output value,"[1]; sample C2693.01.2, cut-off 250",46
same,output value,"[1]; sample C2697.01.4, cut-off 250",103
same,output value,"[1]; sample C2729.01.4, cut-off 250",72
same,output value,"[1]; sample C2748.01.4, cut-off 250",55
same,output value,"[1]; sample C2792.01.2, cut-off 250",98
same,output value,"[1]; sample C2794.01.9, cut-off 250",14
same,output value,"[1]; sample C2868.01.6, cut-off 250",58
same,output value,"[1]; sample C2991.01.7, cut-off 250",310
same,output value,[1]; [8],156
same,output value,"[1]; sample C3101.01.6, cut-off 250",70
same,output value,[1]; [9],38
same,output value,[1]; [10],430
same,output value,"[1]; sample C3337.01.6, cut-off 250",240
same,output value,"[1]; sample C3377.01.2, cut-off 250",86
same,output value,"[1]; sample C3507.01.5, cut-off 250",94
same,output value,"[1]; sample C3730.01.9, cut-off 250",511
same,output value,"[1]; sample C3873.01.4, cut-off 250",199
same,output value,"[1]; sample C3957.01.6, cut-off 250",53
same,output value,"[1]; sample C4005.01.2, cut-off 250",125
same,output value,[1]; [11],−259
C[C@H](Nc1ccc2c(c1)OCCn1cc(N3C(=O)OC[C@H]3C(F)F)nc1-2)C(N)=O [GDC-0077],output value,"[1]; sample C1816.01.6, cut-off 250",−22
same,output value,[1]; [4],38
same,output value,"[1]; sample C1918.01.5, cut-off 250",38
same,output value,[1]; [5],62
same,output value,[1]; [6],36
same,output value,"[1]; sample C2167.01.4, cut-off 250",−12
same,output value,[1]; [7],34
same,output value,"[1]; sample C2483.01.6, cut-off 250",113
same,output value,"[1]; sample C2693.01.2, cut-off 250",−24
same,output value,"[1]; sample C2697.01.4, cut-off 250",31
same,output value,"[1]; sample C2729.01.4, cut-off 250",34
same,output value,"[1]; sample C2748.01.4, cut-off 250",65
same,output value,"[1]; sample C2792.01.2, cut-off 250",43
same,output value,"[1]; sample C2794.01.9, cut-off 250",−89
same,output value,"[1]; sample C2868.01.6, cut-off 250",−24
same,output value,"[1]; sample C2991.01.7, cut-off 250",55
same,output value,[1]; [8],60
same,output value,"[1]; sample C3101.01.6, cut-off 250",0
same,output value,[1]; [9],0
same,output value,[1]; [10],14
same,output value,"[1]; sample C3337.01.6, cut-off 250",139
same,output value,"[1]; sample C3377.01.2, cut-off 250",−161
same,output value,"[1]; sample C3507.01.5, cut-off 250",−58
same,output value,"[1]; sample C3730.01.9, cut-off 250",−113
same,output value,"[1]; sample C3873.01.4, cut-off 250",122
same,output value,"[1]; sample C3957.01.6, cut-off 250",−10
same,output value,"[1]; sample C4005.01.2, cut-off 250",−12
same,output value,[1]; [11],−466
"CCOc1cc2ncc(C#N)c(Nc3ccc(OCc4ccccn4)c(Cl)c3)c2cc1NC(=O)/C=C/CN(C)C [Neratinib, neratinib]",output value,"[2]; sample C125, cut-off 500",54
same,output value,"[2]; sample C129, cut-off 500",247
same,output value,"[2]; sample C133, cut-off 500",161
same,output value,"[2]; sample C148, cut-off 500",38
same,output value,"[2]; sample C152, cut-off 500",482
same,output value,"[2]; sample C197, cut-off 500",590
same,output value,"[2]; sample C199, cut-off 500",296
same,output value,"[2]; sample C201, cut-off 500",110
same,output value,"[2]; sample C213, cut-off 500",42
same,output value,"[2]; sample C219, cut-off 500",92
same,output value,"[2]; sample C223, cut-off 500",666
same,output value,"[2]; sample C230, cut-off 500",506
same,output value,"[2]; sample C251, cut-off 500",106
same,output value,"[2]; sample C270, cut-off 500",962
same,output value,"[2]; sample C276, cut-off 500",166
same,output value,"[2]; sample C307, cut-off 500",38
same,output value,"[2]; sample C371, cut-off 500",460
same,output value,"[2]; sample C434, cut-off 500",35
same,output value,"[3]; sample C125, cut-off 500",−19
same,output value,"[3]; sample C129, cut-off 500",48
same,output value,"[3]; sample C133, cut-off 500",65
same,output value,"[3]; sample C148, cut-off 500",−11
same,output value,"[3]; sample C152, cut-off 500",198
same,output value,"[3]; sample C197, cut-off 500",313
same,output value,"[3]; sample C199, cut-off 500",283
same,output value,"[3]; sample C201, cut-off 500",−12
same,output value,"[3]; sample C213, cut-off 500",41
same,output value,"[3]; sample C219, cut-off 500",−48
same,output value,"[3]; sample C223, cut-off 500",284
same,output value,"[3]; sample C230, cut-off 500",289
same,output value,"[3]; sample C251, cut-off 500",16
same,output value,"[3]; sample C270, cut-off 500",301
same,output value,"[3]; sample C276, cut-off 500",11
same,output value,"[3]; sample C307, cut-off 500",41
same,output value,"[3]; sample C371, cut-off 500",270
same,output value,"[3]; sample C434, cut-off 500",−1
